Each structure is given as a SMILES string. The source made the active and inactive calls. The rule behind the calls is not given here.

This experiment relates to NIH 3T3 cells, IRF-1 mRNA qPCR, IFNg-stimulated. Description: activators of IFNg-induced IRF-1 mRNA expression, late-stage follow-up, counter-screen for STAT1 activator project, SYBR qPCR, NIH 3T3 cells, powder samples (AID 449759). Conditions: at 10 µM; active compounds read high. For orientation: The purpose of a counterscreen is to sort out artefacts and off-target activity.

For the molecule `COc1ccc(-c2cc(C)nc3c(-c4ccccc4)cnn23)cc1`, the fold change was 0.81 (inactive).

Turning to `COc1ccc(-c2csc(N3C(=O)CNC3=S)n2)cc1`, the fold change is 0.34 (inactive).

With `CCN(CC)c1ccc2cc(C(=O)Nc3ccccn3)c(=O)oc2c1`, the fold change was 0.85 (inactive).

Consider `Cc1ccc(C(=O)Nc2nc3ccccc3s2)s1`, for which the fold change is 0.93 (inactive).

On to `O=C(/C=C/Nc1ccccc1F)c1ccc(Br)cc1`, for which the fold change is 0.77 (inactive).

Consider `COc1ccc2[nH]c3c(c2c1)CCn1c-3nc2ccccc2c1=O`, for which the fold change is 0.89 (inactive).

For the molecule `CCOC(=O)/C(C#N)=C/c1cc(C)n(-c2ccccc2)c1C`, the fold change was 0.7 (inactive).

As for `N#C/C(=C\c1ccc(N2CCOCC2)o1)c1nc2ccccc2[nH]1`, the fold change was 0.5 (inactive).

These data come from PubChem BioAssay AID449759 (The Scripps Research Institute Molecular Screening Center, 2010).
